Experimental findings from PubChem BioAssay (NCI) are described below.

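Protocol summary: plate cells (96-well), add compound at 5 concentrations, incubate 48 h, interpolate endpoints linearly. TGI: concentration producing complete growth inhibition.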

Test in all cases: NCI-60 cell line screen, 48 h
In test [1] the test system is UACC-257 melanoma.
The test system of test [2] is HL-60(TB) leukemia.
In test [3] the test system is OVCAR-8 ovarian.
The test system of test [4] is SR leukemia.
The test system of test [5] is HT29 colon.
Test [6] relates to IGROV1 ovarian.
The test system of test [7] is MALME-3M melanoma.
The test system of test [8] is MDA-MB-435.
For test [9], the system named is OVCAR-4 ovarian.
In test [10] the test system is HOP-92 NSCLC.
Test [11] concerns MDA-N.
In test [12] the test system is UACC-62 melanoma.
For test [13], the system named is SNB-75 CNS.
Test [14] concerns ACHN renal.
Test [15] concerns A498 renal.
Test [16] deals with SK-OV-3 ovarian.
The test system of test [17] is SK-MEL-28 melanoma.
For test [18], the system named is TK-10 renal.
The test system of test [19] is NCI-H522 lung.

In the case of `CC(C)=CCC[C@@H](C)C1=C(O)C(Nc2ccccc2F)=C(C)C(=O)C1=O`, the TGI is more than 100 µM in test [1]; 5.61 µM in [2]; more than 100 µM in test [3]; more than 100 µM in [4]; more than 100 µM in test [5]; more than 69.5 µM in [6]. For the same compound, the TGI was 41.1 µM in [7]; more than 100 µM in test [8]; more than 100 µM in [9]; more than 65.3 µM in [10]; more than 100 µM in [11]; more than 79.3 µM in [12]. Moreover, the TGI is more than 78.8 µM in test [13]; 49.5 µM in [14]; 67.2 µM in test [15]; more than 100 µM in test [16]; more than 100 µM in test [17]; more than 100 µM in test [18].
On to `O=C(/C=C/c1ccsc1)c1ccc(Cl)s1`, for which the TGI in [1] is more than 100 µM; in test [2], 57.2 µM; in test [3], more than 100 µM; in [4], 54 µM; in [5] it was more than 100 µM; in test [6], more than 100 µM. Further, the TGI in [7] was more than 100 µM; in [8], 79.9 µM; in test [9], more than 100 µM; in [11], more than 100 µM; in test [12], more than 100 µM; in test [13] it was more than 100 µM. The TGI in [14], in test [15], in [16], in test [17] and in test [18] was more than 100 µM each time.
As for `CNC(=O)C(NC(=O)[C@H](CC(C)C)NC(=O)[C@@H](S)CCN1C(=O)N(C)C(C)(C)C1=O)C(C)(C)C` (stereo partly drawn), the TGI in [1], in [2], in test [3], in test [4], in test [5] and in test [6] was more than 100 µM in each case. For the same compound, the TGI in test [7], in [8], in [9], in test [10], in [11] and in [12] was more than 100 µM each time. In addition, the TGI in [14], in test [15], in [16], in test [19], in test [17] and in test [18] was more than 100 µM throughout.
Regarding `CCC(C)N1CN(c2ccccc2)C2(CCN(CCCC(=O)c3ccc(F)cc3)CC2)C1=O` (stereo not drawn), the TGI in test [2] came out at 46 µM; in test [4], 23.3 µM; in test [5], 2.35 µM; in [6], 18.7 µM; in test [7], 27.8 µM; in test [8], 27.5 µM. Moreover, the TGI is 16.2 µM in test [9]; 25.5 µM in test [11]; 32.9 µM in [12]; 38.3 µM in [13]; 9.73 µM in test [14]; 16.8 µM in [15]. The TGI in test [16] is 21.5 µM; in test [19] it was 20.6 µM; in test [17] it was 32.1 µM; in [18] it was 16.5 µM.
Turning to `CCC(c1nc2ccccc2c(=O)n1NC(=O)C(C)(C)C)C1(O)CCCCC1` (stereo not drawn), the TGI in [1], in test [2], in [3], in test [4], in test [5] and in test [6] was more than 100 µM each time. For the same compound, the TGI in [7], in test [8], in [9], in test [10], in test [11] and in [12] was more than 100 µM throughout. For the same compound, the TGI in test [13], in [14], in [15], in [16], in [19] and in test [17] was more than 100 µM each time.
Consider `S=C1NC2=C(COC/C2=C\c2ccccc2Cl)C(c2ccccc2Cl)N1` (stereo not drawn), for which the TGI in [1] was more than 100 µM; in test [2] it was 34.4 µM; in [3] it was more than 100 µM; in test [4], 20.9 µM; in test [6], more than 100 µM; in test [8] it was more than 100 µM. The TGI in test [9], in test [10], in test [11], in test [12], in [13] and in test [14] was more than 100 µM each time. The TGI in test [15], in test [16], in [19] and in [18] was more than 100 µM in each case.
For the compound `CCOc1ccc(C(c2c(O)c3ccccc3oc2=O)c2c(O)c3ccccc3oc2=O)cc1`, the TGI in test [1] was more than 100 µM; in [2], 50.2 µM; in test [3], more than 100 µM; in [4], 58.7 µM; in test [5], more than 100 µM; in test [6], more than 100 µM. In addition, the TGI was more than 100 µM in [7]; more than 100 µM in test [8]; more than 100 µM in test [9]; 65.1 µM in [10]; more than 100 µM in [11]; more than 100 µM in [12]. For the same compound, the TGI in test [14], in test [15], in [16], in test [19], in test [17] and in test [18] was more than 100 µM each time.
Take `COc1cc(OC)c(NC2=NCCO2)cc1Cl`: the TGI was more than 100 µM in test [1]; more than 100 µM in test [2]; more than 100 µM in [3]; 83.2 µM in [4]; 47.8 µM in test [5]; more than 100 µM in test [6]. The TGI in test [7] is more than 100 µM; in [8], 38.4 µM; in test [9], more than 100 µM; in [11] it was 32.3 µM; in test [12] it was more than 100 µM; in test [13] it was more than 100 µM. Further, the TGI is more than 100 µM in [14]; 81.5 µM in [15]; more than 100 µM in [19]; more than 100 µM in test [17]; more than 100 µM in [18].
